Among the data in PubChem BioAssay AID1508591 are half-life values, retold here.

What is called half-life is the time in which the quantity being followed falls by half. Low readings indicate fast loss, high ones slow loss.

“And” between values parts separate entries of the source, which are not always exact repeats. Equal entries are not always repeated.

For the data set the following is noted: rat; liver microsomes; pH 7.4; 15.0 min; 1.0 µM. For orientation: Liver microsomes are vesicles of endoplasmic reticulum, rich in cytochrome P450 enzymes.
In turn, `COC(=O)CNC(=O)c1nc(-c2ccc(F)cc2)c2ccccn12` showed a half-life of 0.91 min.

The molecule `COc1cc2nc(N3CCCC3)nc(NCCCCCN3CCCC3)c2cc1OC` gave a half-life above 30 min. Then `NC(=O)C1CCN(c2nc(-c3cccnc3)cs2)CC1`, with above 30 min; and `Cc1ccc(S(=O)(=O)Nc2cc3c(cc2C(=O)Nc2nc(-c4ccccc4)cs2)OCO3)cc1`, with 6.7 min. On to `CC(C)c1ccccc1-c1ncc(F)c(NCC2CCN(c3cccnc3)CC2)n1`, for which the half-life amounted to 3 min. `O=S(=O)(Nc1cccc2ccccc12)c1ccc(NCc2ccc(Br)cc2O)cc1` returned a half-life of 7.4 min. The molecule `CC1=C(C(=O)NCc2ccccc2)C(c2ccccc2Br)N=C(Nc2nc3ccccc3o2)N1` (stereo not drawn) had a half-life of 7 min.

Turning to `O=C(NCCc1ccc(OCC(F)(F)F)c(OCC(F)(F)F)c1)c1cc2sccc2n1Cc1ccccc1`, the half-life came to 1.9 min. On to `CC(C)CN(C[C@@H](O)[C@H](Cc1ccccc1)NC(=O)O[C@@H]1CO[C@H]2OCC[C@H]21)S(=O)(=O)c1ccc(N)cc1`, for which the half-life was determined as 13.8 min. For the molecule `Fc1cc(Nc2nc(-c3ccncc3)nc3ccccc23)ccc1-c1ccc(F)c(F)c1F`, the half-life was found to be 24 min. Turning to `c1ccc(-c2cc(Nc3nc(-c4ccncc4)nc4ccccc34)n[nH]2)cc1`, the half-life came out at 11 min. As for `CNc1oc(-c2cccc3ccccc23)nc1C(=O)Nc1cccc(C#N)c1`, the half-life stood at 17 min. With `COc1cc(C2c3c(oc4cc(C)c(C)cc4c3=O)C(=O)N2CCCN2CCOCC2)ccc1O` (stereo not drawn), the half-life amounted to 12.7 min. Molecule `COc1ccc(-c2cc(-c3cccc(NC(C)=O)c3)cn3cncc23)cn1` had a half-life of 15.7 min.

On to `N#Cc1ccc(S(=O)(=O)Nc2cnccc2C(=O)Nc2nc(-c3ccccc3)cs2)cc1`, for which the half-life was above 30 min. `Cc1ccccc1N(C)C1CN([S+](=O)([O-])c2cccc(C(F)(F)F)c2)C1` yielded a half-life of 1.98 min. Then `Oc1c(C(Nc2nccs2)c2ccc(C(F)(F)F)cc2)ccc2cccnc12` (stereo not drawn), with 3.54 min; and `CCn1c(C(=O)N2CCCC(C(=O)NCCc3ccc(C)cc3)C2)cc2sccc21` (stereo not drawn), with 1.7 min.

On to `CC(C)c1ccccc1-c1ncc(F)c(NC2(c3ccc(-c4cccnc4)cc3)CC2)n1`, for which the half-life was 8.9 min. In turn, `COc1ccc(-c2c(-c3cc(C(=O)O)ccn3)ncn2C)cc1` gave a half-life above 30 min. The molecule `O=C1CCCC2=C1C(c1ccncc1Cl)N=C(Nc1nc3ccccc3o1)N2` (stereo not drawn) had a half-life of 6.6 min. `COc1ccccc1N1CCN(c2ccc3cc(S(=O)(=O)N4CCCCC4)ccc3n2)CC1`: the half-life came to 2.16 min. Take `Cc1ccc(S(=O)(=O)Nc2ncccc2C(=O)Nc2nc(-c3ccccc3)cs2)cc1`: the half-life is 14 min. Molecule `CCOC(=O)c1ccc(N2C(=O)c3n[nH]c(-c4cccs4)c3C2c2ccc(OCC)cc2)cc1` (stereo not drawn) came in with a half-life of 5.72 min. As for `CC(=O)c1ccc(N2CCN(S(=O)(=O)c3ccc4c(c3)n(C)c(=O)n4C)CC2)cc1`, the half-life was above 30 min. `Oc1cccc2nc3ccccc3nc12` had a half-life of 8.9 min. Then `Cc1ccc(S(=O)(=O)Nc2cnccc2C(=O)Nc2nc(-c3ccc(Cl)cc3)cs2)cc1`, with above 30 min. Regarding `C[C@@H]1[C@@H](CC(C[C@H]2O[C@@H]3O[C@]4(C)CC[C@@H]5[C@H](C)CC[C@@H]([C@H]2C)[C@@]35OO4)C(=O)NCc2ccc(F)cc2)O[C@@H]2O[C@]3(C)CC[C@H]4[C@H](C)CC[C@@H]1[C@@]24OO3` (stereo partly drawn), the half-life stood at 2.4 min. In turn, `CCCNC(=O)[C@H]1O[C@H]1C(=O)N[C@H](C(=O)N1CCC[C@@H]1C(=O)OC)C(C)CC` (stereo partly drawn) showed a half-life above 30 min. Molecule `c1ccc(CNc2nc(NCc3ccccc3)c3ccccc3n2)cc1` yielded a half-life of 5.2 min. The molecule `O=S(=O)(Nc1cnc2ccccc2c1)c1ccc(NCc2cccc(Cl)c2O)cc1` returned a half-life of 18 min. Molecule `Cn1c(=O)cc(C(=O)NC2CCCc3c2[nH]c2c(Cl)cccc32)c2ccccc21` (stereo not drawn) yielded a half-life of 10.1 min. Molecule `CCn1c(=NC(=O)c2ccc(S(=O)(=O)N3CCCCC3)cc2)sc2cccc(OC)c21` came in with a half-life of 9.5 min. `O=C(O)c1ccnc2cc(C(OCC3CCC(F)(F)CC3)c3ccccc3Cl)[nH]c12` (stereo not drawn) had a half-life above 30 min.

In turn, `CCN1CCN(CC(=O)Nc2ccc(-c3cccc4c(=O)cc(N5CCOCC5)oc34)c3sc4ccccc4c23)CC1` showed a half-life above 30 min.

Molecule `COCC(C)NCc1cc2ccc(OC)cc2nc1N1CCN(c2ccc(F)cc2)CC1` (stereo not drawn) showed a half-life of 10.4 min.

`CC[C@@H](C)Nc1cc(C(=O)NC2CC3CCC(C2)N3c2ccc(C(=O)C3CC3)cn2)c(C)cc1C(N)=O` (stereo partly drawn): the half-life turned out to be 23.4 min. Regarding `CN=C1CN=C(c2ccc[nH]2)c2cc(Cl)ccc2N1`, the half-life was > 30 min and 23 min. Then `CCN1C(=O)c2ccccc2[S@](=O)c2ccc(C(=O)N[C@H](C)c3ccc(Br)cc3)cc21`, with 7.7 min; and `Cc1ccnc(NC(=S)N2CCN(c3cccc(C(F)(F)F)c3)C[C@@H]2C)c1`, with 7.12 min. Then `CC(C)C[C@H]1C(=O)N2CCC[C@H]2[C@]2(O)O[C@](NC(=O)[C@@H]3C=C4c5cccc6[nH]c(Br)c(c56)C[C@H]4N(C)C3)(C(C)C)C(=O)N12`, with 1.59 min; and `CC(C)(C)OC(=O)NC1CCN(c2nc(-c3ccc(Br)cc3)cs2)CC1`, with above 30 min; and `CCN(c1cc(C#CCN2CCOCC2)cc(C(=O)NCc2c(C)cc(C)[nH]c2=O)c1C)C1CCC(N(C)CCOC)CC1` (stereo not drawn), with above 30 min. As for `NC(=O)C1CCN(c2nccc(-c3ccc4c(c3)OCCO4)n2)CC1`, the half-life came to 1.71 min. Turning to `C[C@H]1CN(C(=O)c2nn(C)c3ccccc23)C[C@@H]1c1nc(-c2cccnc2)no1`, the half-life came to 4.4 min. For the molecule `O=S(=O)(Nc1ccccc1N1CCCCC1)c1ccc(Cl)s1`, the half-life was determined as 2.02 min. Then `COc1ccc(-c2cnc(N3CCC(C(N)=O)CC3)s2)cc1OC`, with above 30 min. `COc1cc2c(C(=O)N3CCN(c4cccc(C(F)(F)F)c4)CC3)cn(CC(C)C)c(=O)c2cc1OC` displayed a half-life of 3.15 min. On to `CCCOC(c1cc2nccc(C(=O)O)c2[nH]1)c1ccccc1Cl` (stereo not drawn), for which the half-life was determined as 23.1 min. In turn, `Oc1ccc(CNc2ccc(C(F)(F)F)cc2F)c2cccnc12` came in with a half-life of 5.53 min. Then `O=C1CCCC2=C1C(c1[nH]ncc1Cl)N=C(Nc1nc3ccccc3o1)N2` (stereo not drawn), with 13.5 min. As for `Cc1ccc(S(=O)(=O)Nc2cnccc2C(=O)Nc2ccccc2)cc1`, the half-life came out at 2.6 min. `OCCn1cc(-c2cnc3nnn(Cc4ccc5ncccc5c4)c3n2)cn1` came in with a half-life above 30 min. `CS(=O)(=O)Nc1cccc(-c2nccc(-n3ccnc3)n2)c1` had a half-life above 30 min. Turning to `CNC(=O)c1ccccc1Nc1nc(Nc2ccc(N3CCOCC3)cc2OC)ncc1Cl`, the half-life was above 30 min. In turn, `O=C(Nc1nc(-c2ccc(Cl)s2)cs1)c1cccs1` returned a half-life of 19.5 min. The value for `O=C(N/N=C/c1ccc(O)c(O)c1)c1cc2ccccc2cc1O` was 15.1 min; that for `Cc1ccc(S(=O)(=O)Nc2ccc(C)cc2C(=O)Nc2nc(-c3ccccc3)cs2)cc1` was 3.7 min. As for `CC(C)CNc1ncnc2onc(-c3ccc(Cl)cc3)c12`, the half-life was determined as 12 min.

The molecule `Cc1ccc(-c2cc(C(=O)Nc3cccc(S(=O)(=O)Nc4nccs4)c3)c3ccccc3n2)cc1C` gave a half-life of 14 min. Molecule `O=c1c(O)c(-c2ccc(O)cc2)oc2cc(O)cc(O)c12` showed a half-life of 6.13 min. As to `Cc1ccc(-c2cc(C(=O)Nc3ccc(-n4cccn4)cc3)c3ccccc3n2)cc1C`, the half-life turned out to be 9.1 min. In turn, `CC(=O)c1c(C)[nH]c(C(=O)Nc2cccc(S(=O)(=O)Nc3ccc(Br)cc3)c2)c1C` came in with a half-life of 18 min.

In turn, `COc1ccc(-n2nc(C3CCCN(C(=O)c4ccccc4F)C3)[nH]c2=O)cc1` (stereo not drawn) had a half-life above 30 min.

`CC(=O)N1CCC(NC(=O)c2nc(-c3ccccc3)cc3[nH]ccc23)CC1` had a half-life above 30 min. As to `O=C(c1csnn1)N1CCC2(CCCN(C(c3ccccc3)c3ccccc3)C2)CC1`, the half-life was 2.1 min. `O=[N+]([O-])c1ccc(/C=N/n2c(CO)nc3ccccc32)s1` gave a half-life of 21 min. With `COC(=O)C1=C(C)NC(=O)CC1C(=O)Nc1ccc(Cl)cc1` (stereo not drawn), the half-life was 21 min. With `NC(=O)C1CCN(c2nc(-c3ccccc3N)cs2)CC1`, the half-life was 25.3 min. Take `Brc1ccc(-c2csc(N3CCC(c4nn[nH]n4)CC3)n2)cc1`: the half-life is above 30 min. Molecule `COCCN1CCNc2nc(COc3ccc(C(C)C)cc3)n(Cc3ccccc3)c2C1=O` displayed a half-life of 1.82 min.

As to `CC(C)c1ccc(Nc2c(-c3ccccn3)nc3ccccn23)cc1`, the half-life was found to be 2.1 min. As for `Cc1cc(C)c(C(=O)Nc2cccc([S+](=O)([O-])N3CCCCC3)c2)[nH]1`, the half-life amounted to 3 min. `CN(C)CC/C=C1\c2ccccc2Sc2ccc(Cl)cc21` yielded a half-life of 1.76 min. Then `Cc1nc(-c2ccccc2)cc([C@H]2CN3CC[C@H]2C[C@@H]3CNC2CCOCC2)n1`, with above 30 min; and `Fc1cc(Nc2nc(-c3ccncc3)nc3ccccc23)ccc1-c1cccc(OC(F)(F)F)c1`, with above 30 min; and `CCOc1ccc(N2C(=O)c3n[nH]c(-c4cccs4)c3C2c2cccc(F)c2)cc1` (stereo not drawn), with 14.2 min. As to `CC(C)Oc1ccc(CCNC(=O)c2cc3sccc3n2Cc2ccccc2)cc1OC(C)C`, the half-life worked out at 2.7 min. As to `COc1cccc(Nc2ncc(-c3cccc(N(C)C)c3)c3c2OCC3)c1`, the half-life worked out at 8.98 min. The value for `COc1cc(Cl)ccc1C(=O)Nc1nc(-c2ccccc2)cs1` was 14 min.

In turn, `Cc1cc(SCc2sc(-c3ccc(C(F)(F)F)c(F)c3)nc2C)ccc1OCC(=O)O` showed a half-life of 21 min. `Cc1ccc(CN2CCOC[C@H]2c2ncc(-c3cccc(F)c3)[nH]2)cc1` yielded a half-life of 2.16 min. As to `Cc1cc(Br)ccc1NC(=O)C(NS(=O)(=O)c1cccs1)c1ccccc1` (stereo not drawn), the half-life came out at 7.26 min.

With `CCOc1ccc(NC(=O)c2ccc(F)c(S(=O)(=O)N(CC)Cc3ccccc3)c2)cc1`, the half-life turned out to be 1.3 min.

For `COc1cc(-c2ccnc3c2c(C)nn3-c2ccc(C(F)(F)F)cc2)ccc1O`, the half-life is above 30 min. Molecule `NC(CO)(CO)CCc1ccc(Sc2cccc(OCc3ccccc3)c2)cc1Cl` yielded a half-life above 30 min. `Nc1ncnc2c1c(-c1cnc3[nH]ccc3c1)nn2C1CCCC1` yielded a half-life of 3.09 min. The molecule `O=[S+]([O-])(Nc1cccc2ccccc12)c1ccc(NCc2ccc(Cl)cc2O)cc1` had a half-life of 5.4 min.
